Data: patent US20240368157A1, “FORMS AND COMPOSITIONS OF A JAK2 INHIBITOR” (Ajax Therapeutics, Inc., priority 2023, published 2024)

Key:
physchem = details: water
[1] = Dynamic vapor sorption (DVS); format: physicochemical; details: for Hysteresis: in % (unit assumed)
Method: Moisture sorption/desorption data were collected on a Surface Measurement System DVS Intrinsic instrument. Samples were not dried prior to analysis. Sorption and desorption data were collected over a range from 5% to 95% RH to 5% RH at 10% RH increments under a nitrogen purge. The equilibrium criterion used for analysis was less than 0.0100% weight change in 5 minutes with a maximum equilibration time of 3 hours. Data were not corrected for the initial moisture content of the samples.

[2] = Slurry in water at ambient temperature (XRPD); format: physicochemical; details: 3 days

solubility (physchem): < 1000 µg/mL
Desorp Mass Change (%) ([1]; DVS cycle 1, target RH 5%): −0.2589%
Sorp Mass Change (%) ([1]; DVS cycle 1, target RH 5%): 0.0100%
Desorp Mass Change (%) ([1]; DVS cycle 1, target RH 15%): −0.2193%
Sorp Mass Change (%) ([1]; DVS cycle 1, target RH 15%): −0.0114%
Hysteresis ([1]; DVS cycle 1, target RH 15%): −0.2079
Desorp Mass Change (%) ([1]; DVS cycle 1, target RH 25%): −0.1841%
Sorp Mass Change (%) ([1]; DVS cycle 1, target RH 25%): −0.0296%
Hysteresis ([1]; DVS cycle 1, target RH 25%): −0.1545
Desorp Mass Change (%) ([1]; DVS cycle 1, target RH 35%): −0.1477%
Sorp Mass Change (%) ([1]; DVS cycle 1, target RH 35%): −0.0296%
Hysteresis ([1]; DVS cycle 1, target RH 35%): −0.1181
Desorp Mass Change (%) ([1]; DVS cycle 1, target RH 45%): −0.1031%
Sorp Mass Change (%) ([1]; DVS cycle 1, target RH 45%): −0.0202%
Hysteresis ([1]; DVS cycle 1, target RH 45%): −0.0829
Desorp Mass Change (%) ([1]; DVS cycle 1, target RH 55%): −0.0428%
Sorp Mass Change (%) ([1]; DVS cycle 1, target RH 55%): 0.0018%
Hysteresis ([1]; DVS cycle 1, target RH 55%): −0.0446
Desorp Mass Change (%) ([1]; DVS cycle 1, target RH 65%): 0.0238%
Sorp Mass Change (%) ([1]; DVS cycle 1, target RH 65%): 0.0282%
Hysteresis ([1]; DVS cycle 1, target RH 65%): −0.0044
Desorp Mass Change (%) ([1]; DVS cycle 1, target RH 75%): 0.0797%
Sorp Mass Change (%) ([1]; DVS cycle 1, target RH 75%): 0.0741%
Hysteresis ([1]; DVS cycle 1, target RH 75%): 0.0057
Desorp Mass Change (%) ([1]; DVS cycle 1, target RH 85%): 0.1545%
Sorp Mass Change (%) ([1]; DVS cycle 1, target RH 85%): 0.1344%
Hysteresis ([1]; DVS cycle 1, target RH 85%): 0.0201
Desorp Mass Change (%) ([1]; DVS cycle 1, target RH 95%): 0.2669%
Sorp Mass Change (%) ([1]; DVS cycle 1, target RH 95%): 0.2669%
weight gain during sorption ([1]; DVS, 5-95% RH): 0.3%
weight loss during the desorption step ([1]; DVS, 95-5% RH): 0.5%
XRPD pattern of the post-DVS sample ([1]; after DVS experiment): consistent with Form F
hygroscopicity ([1]; judged from DVS sorption/desorption): non-hygroscopic
solid form after slurry in water (XRPD) [2]: converted completely to Form C
Structure (SMILES): CN(C)C(=O)Nc1cc(Oc2cnc3nc(Nc4cc(C(F)(F)F)cn(C)c4=O)n(C)c3c2C#N)ccn1 [Form F]
